{"source": "paper PMC4768221", "about": "“Subcellular localization of anthracyclines in cultured rat cardiomyoblasts as possible predictors of cardiotoxicity” (Investigational New Drugs, 2015)", "key": {"[1]": {"assay": "Cytotoxicity assay (MTT, inhibition of cell proliferation)", "assay_type": "cell-based, rat", "conditions": "rat", "procedure": "(§1) The cytotoxic activity of the drugs was assayed by measuring their inhibitory effects on H9c2(2-1) cell proliferation. To measure the cytotoxicity of doxorubicin, daunorubicin, and their analogs, the tetrazolium dye method was used. Cells were seeded at 1 × 10^4 cells/well in 48-well plates. After 24 h, the cells were incubated with different concentrations of anthracyclines for 72 h in triplicate in a final volume of 1 ml. Then, 50 μl of a sterile aqueous solution of 3-[4,5-dimethylthiazol-2-yl]-2,5-diphenyl-tetrazolium bromide (5 mg/ml) (Sigma-Aldrich) was added to each well for an additional 3 h. The blue formazan precipitate was dissolved in DMSO (Sigma-Aldrich), and the absorbance of solutions was measured at 540 nm. For each experiment, determinations were performed in three replicates. The IC50 values (the anthracycline concentration effective at inhibiting cell growth after exposure to the drug for 72 h) were read from survival curves, which were fitted to an exponential equation using Xact v. 7.2, a statistical software tool by SciLab (Germany)."}, "[2]": {"test_system": "H9c2(2-1) cells", "assay": "Cell cycle analysis by flow cytometry", "assay_type": "cell-based, rat", "conditions": "for Cells in G2/M phase / Cells in S phase / Cells in G0/G1 phase: 24 h treatment at equitoxic concentration (IC50); for Cells in G2/M phase: untreated control 8.7 %; for Cells in S phase: untreated control 11 %; for Cells in G0/G1 phase: untreated control 80.1 %; for Cell cycle arrest pattern: 24 h treatment at IC50, data not shown", "procedure": "The cell cycle was analyzed by flow cytometry using a Becton-Dickinson FACSCanto II flow cytometer. H9c2(2-1) cells were seeded at 1 × 10^4 cells/cm^2 in 10 cm^2 culture flasks. After the cells were allowed to grow for 24 h, the medium was replaced and the cells were treated with an equitoxic anthracycline concentration corresponding to IC50. Treatment was performed for 24 h, and then the cells were washed in PBS and trypsinized. After the cells were washed in PBS again, they were fixed in 70 % ethanol and incubated for 1 h on ice. Fixed cells were washed twice in PBS, resuspended in commercially available propidium iodide staining solution and then subjected to flow cytometric assay. The percentages of H9c2(2-1) cells present in G1, S, and G2 phases of the cell cycle after drug treatment were analyzed using FACSDiva 6.1 software."}, "[3]": {"test_system": "H9c2(2-1) cells", "assay": "Cellular uptake (fluorimetric, ethanol/HCl extraction)", "assay_type": "cell-based, rat", "conditions": "10 μM, 1 h; for Accumulation relative to parent drug (times higher): vs DOX or DRB", "procedure": "Anthracycline uptake was estimated by fluorimetric measurements after the drugs were extracted with an ethanol/HCl mixture as described by Riganti et al.. H9c2(2-1) cells (2 × 10^5) were seeded onto 40 × 11 mm tissue culture dishes for 24 h. Then, the cells were treated in growth medium with 10 μM anthracycline solution at 37 °C for 1 h. After this time, the cells were gently scraped and suspended in 5 ml of ice-cold PBS. The cell suspension aliquots were centrifuged at 1500 rpm for 5 min and then washed twice in ice-cold PBS. Next, cell pellets were collected and resuspended in 2 ml of a 1:1 mixture of ethanol:0.3 M HCl, and the fluorescence intensities of these suspensions were measured at 20 °C using a Perkin-Elmer LS 55 spectrofluorimeter. The optimal excitation and emission wavelengths were 485 and 590 nm, respectively. To estimate the drug concentrations, calibration curves in the concentration range of 0.01–0.5 μM were prepared. Because the fluorescence was quenched slightly in the presence of cells, each point of the calibration curves was measured in the presence of 2 × 10^5 cells suspended in a mixture of ethanol/HCl."}, "[4]": {"test_system": "double-stranded calf thymus DNA", "assay": "Ethidium bromide displacement assay (affinity to DNA)", "assay_type": "binding", "conditions": "for Kapp (apparent DNA binding constant): ethidium bromide displacement, mean of three ± S.D.; for Kapp relative to parent drug (times lower): vs DOX or DRB", "procedure": "The binding of the anthracyclines to double-stranded calf thymus DNA was tested by the ethidium bromide displacement assay. This method is based on the competition between the tested compound and ethidium bromide for DNA intercalation sites. The fluorescence intensity of ethidium bromide increases upon DNA binding. Addition of a compound displacing intercalated ethidium bromide leads to quenching of the fluorescence of the DNA/ethidium bromide complex. The percentage of initial fluorescence was plotted against the concentration of the added compound, and the IC50 value was read. The IC50 value is defined as the concentration of added compound required to reduce the fluorescence of the DNA/ethidium bromide complex to 50 %. IC50 values were then used to calculate the apparent binding constants of the anthracyclines to DNA."}, "[5]": {"parameters": "method as in PMID 16158943", "conditions": "animal models, compared to DOX and DRB; cited from earlier work"}, "[6]": {"test_system": "H9c2(2-1) rat cardiomyoblasts", "assay": "Cytotoxicity assay (MTT, inhibition of cell proliferation)", "assay_type": "cell-based", "conditions": "72 h", "procedure": "as §1"}, "[7]": {"conditions": "H9c2(2-1) rat cardiomyoblast cells, H9c2(2-1) cells, 72 h exposure, MTT, mean of six experiments ± S.D., read-out: Cytotoxicity IC50"}, "[8]": {"conditions": "H9c2(2-1) cells, 72 h exposure, MTT, mean of six experiments ± S.D., read-out: Cytotoxicity IC50"}, "[9]": {"conditions": "H9c2(2-1), parent DOX or DRB vs analog"}}, "note": "Read-outs that look alike come from different tables or passages of the source.", "data": [{"smiles": "COc1cccc2c1C(=O)c1c(O)c3c(c(O)c1C2=O)C[C@@](O)(C(=O)CO)C[C@@H]3O[C@H]1C[C@H](N)[C@H](O)[C@H](C)O1", "note": "[DOX, doxorubicin, reference compound]", "values": [{"measurement": "IC50 at 72 h", "setting": "[1]; [7]", "value": "0.035 ± 0.004", "unit": "µM"}, {"measurement": "Cells in G2/M phase", "setting": "[2]", "value": 40.6, "unit": "%"}, {"measurement": "Cells in S phase", "setting": "[2]", "value": 9.0, "unit": "%"}, {"measurement": "Cells in G0/G1 phase", "setting": "[2]", "value": 50.4, "unit": "%"}, {"measurement": "Cellular accumulation higher than DOXM", "setting": "[3]", "value": "approximately 30%"}, {"measurement": "Kapp (apparent DNA binding constant)", "setting": "[4]", "value": "18.1 ± 0.41 × 10^5 [M^-1]"}, {"measurement": "Cardiotoxicity in vivo", "setting": "[5]", "value": "most cardiotoxic"}]}, {"smiles": "COc1cccc2c1C(=O)c1c(O)c3c(c(O)c1C2=O)C[C@@](O)(C(=O)CO)C[C@@H]3O[C@H]1C[C@H](N=CN2CCCCCC2)[C@H](O)[C@H](C)O1", "note": "[DOXH]", "values": [{"measurement": "IC50 at 72 h", "setting": "[1]; [8]", "value": "0.087 ± 0.007", "unit": "µM"}, {"measurement": "Cytotoxic activity of the parent compound relative to this analog (times higher)", "setting": "[6]; [9]", "value": "~2.5", "unit": "times"}, {"measurement": "Cells in G2/M phase", "setting": "[2]", "value": 13.5, "unit": "%"}, {"measurement": "Cells in S phase", "setting": "[2]", "value": 36.4, "unit": "%"}, {"measurement": "Cells in G0/G1 phase", "setting": "[2]", "value": 50.1, "unit": "%"}, {"measurement": "Accumulation relative to DOXM (times higher)", "setting": "[3]", "value": "~2", "unit": "times"}, {"measurement": "Accumulation relative to parent drug (times higher)", "setting": "[3]", "value": 1.5, "unit": "times"}, {"measurement": "Kapp (apparent DNA binding constant)", "setting": "[4]", "value": "7.30 ± 0.14 × 10^5 [M^-1]"}, {"measurement": "Kapp relative to parent drug (times lower)", "setting": "[4]", "value": "2.5–2.8 times"}, {"measurement": "Cardiotoxicity in vivo", "setting": "[5]", "value": "lower cardiotoxicity"}]}, {"smiles": "COc1cccc2c1C(=O)c1c(O)c3c(c(O)c1C2=O)C[C@@](O)(C(=O)CO)C[C@@H]3O[C@H]1C[C@H](N=CN2CCOCC2)[C@H](O)[C@H](C)O1", "note": "[DOXM]", "values": [{"measurement": "IC50 at 72 h", "setting": "[1]; [8]", "value": "0.138 ± 0.018", "unit": "µM"}, {"measurement": "Cytotoxic activity of the parent compound relative to this analog (times higher)", "setting": "[6]; [9]", "value": "approximately 4 times"}, {"measurement": "Cells in G2/M phase", "setting": "[2]", "value": 13.0, "unit": "%"}, {"measurement": "Cells in S phase", "setting": "[2]", "value": 33.5, "unit": "%"}, {"measurement": "Cells in G0/G1 phase", "setting": "[2]", "value": 53.5, "unit": "%"}, {"measurement": "Kapp (apparent DNA binding constant)", "setting": "[4]", "value": "0.90 ± 0.12 × 10^5 [M^-1]"}, {"measurement": "Kapp relative to parent drug (times lower)", "setting": "[4]", "value": "approximately 20 times"}, {"measurement": "Cardiotoxicity in vivo", "setting": "[5]", "value": "lower cardiotoxicity"}]}, {"smiles": "COc1cccc2c1C(=O)c1c(O)c3c(c(O)c1C2=O)C[C@@](O)(C(C)=O)C[C@@H]3O[C@H]1C[C@H](N)[C@H](O)[C@H](C)O1", "note": "[DRB, daunorubicin, reference compound]", "values": [{"measurement": "IC50 at 72 h", "setting": "[1]; [7]", "value": "0.076 ± 0.007", "unit": "µM"}, {"measurement": "Cell cycle arrest pattern", "setting": "[2]", "value": "G2/M arrest"}, {"measurement": "Kapp (apparent DNA binding constant)", "setting": "[4]", "value": "11.7 ± 0.22 × 10^5 [M^-1]"}, {"measurement": "Cardiotoxicity in vivo", "setting": "[5]", "value": "most cardiotoxic"}]}, {"smiles": "COc1cccc2c1C(=O)c1c(O)c3c(c(O)c1C2=O)C[C@@](O)(C(C)=O)C[C@@H]3O[C@H]1C[C@H](N=CN2CCCCCC2)[C@H](O)[C@H](C)O1", "note": "[DRBH]", "values": [{"measurement": "IC50 at 72 h", "setting": "[1]; [8]", "value": "0.172 ± 0.014", "unit": "µM"}, {"measurement": "Cytotoxic activity of the parent compound relative to this analog (times higher)", "setting": "[6]; [9]", "value": 2, "unit": "times"}, {"measurement": "Cell cycle arrest pattern", "setting": "[2]", "value": "S phase arrest"}, {"measurement": "Accumulation relative to other tested compounds (times higher)", "setting": "[3]; other than parent DRB", "value": "5–7 times"}, {"measurement": "Accumulation relative to parent drug (times higher)", "setting": "[3]", "value": "more than 1.5 times"}, {"measurement": "Kapp (apparent DNA binding constant)", "setting": "[4]", "value": "4.1 ± 0.08 × 10^5 [M^-1]"}, {"measurement": "Kapp relative to parent drug (times lower)", "setting": "[4]", "value": "2.5–2.8 times"}, {"measurement": "Cardiotoxicity in vivo", "setting": "[5]", "value": "lower cardiotoxicity"}]}, {"smiles": "COc1cccc2c1C(=O)c1c(O)c3c(c(O)c1C2=O)C[C@@](O)(C(C)=O)C[C@@H]3O[C@H]1C[C@H](N=CN2CCOCC2)[C@H](O)[C@H](C)O1", "note": "[DRBM]", "values": [{"measurement": "IC50 at 72 h", "setting": "[1]", "value": "0.626 ± 0.018", "unit": "µM"}, {"measurement": "Cytotoxic activity of the parent compound relative to this analog (times higher)", "setting": "[6]; rat", "value": 8, "unit": "times"}, {"measurement": "Cell cycle arrest pattern", "setting": "[2]", "value": "S phase arrest"}, {"measurement": "Kapp (apparent DNA binding constant)", "setting": "[4]", "value": "0.64 ± 0.03 × 10^5 [M^-1]"}, {"measurement": "Kapp relative to parent drug (times lower)", "setting": "[4]", "value": "approximately 20 times"}, {"measurement": "Cardiotoxicity in vivo", "setting": "[5]", "value": "lower cardiotoxicity"}]}]}
